According to PMC9051593, “Glucagonlike Peptide-1 Receptor Imaging in Individuals with Type 2 Diabetes” (Journal of Nuclear Medicine, 2022):
Read-outs that look alike come from different tables or passages of the source. Values belong to the substance of their own block, whether it stands above or below them.

Experiments:
GLP1R [1] = conditions: in words, cited from earlier work
Method: Exendin4 is a synthetic peptide that binds to GLP1R with nanomolar affinity and high specificity ([4]). […] In the absence of suitable antagonists, agonists such as exendin4 can be used as PET tracers, but care must be taken to avoid unwanted pharmacologic effects. […] Doses of around 0.5 µg/kg elicit up to 50% blocking of the signal.

GLP1R [2] = conditions: in words; cited from earlier work
Method: In the absence of suitable antagonists, agonists such as exendin4 can be used as PET tracers, but care must be taken to avoid unwanted pharmacologic effects. […] Doses of around 0.5 µg/kg elicit up to 50% blocking of the signal.

[3] = parameters: species or system human; conditions: in vivo; for Plasma-to-blood ratio: human, iv, 0.5 MBq/kg
Method: Dynamic PET was initiated at administration and continued for 60 min. Blood sampling for glucose was performed before and during the scan as a safety precaution, as exendin4 can stimulate insulin secretion at pharmacologic doses. For 3 individuals, arterial sampling was performed at 5, 30, and 60 min after ^68Ga-exendin4 administration to measure the radioactivity in whole blood and plasma and to determine the metabolic stability of the tracer (the methods are shown in the supplemental materials, available at http://jnm.snmjournals.org) (17). Abdominal tissues of interest, including pancreas (target tissue), aorta (input signal), kidney (excretion), and spleen and erector spinae muscle (negative reference tissues) were manually segmented on coregistered PET/CT images using […] software, version 2.9 (Turku PET Center). The aorta was delineated by segmenting single voxels fully within the lumen of the descending aorta. The arterial plasma image-derived input function was generated by correcting the aorta signal for plasma-to-whole-blood partitioning and for the percentage of intact ^68Ga-exendin4 during the scan (based on a population estimate).

GLP1R [4] = target: T1, GLP1R (Macaca fascicularis, UniProt F8V479); assay: 68Ga-exendin4 PET dose escalation (self-blocking) study in NHP pancreas, Logan Vt; format: in vivo, cynomolgus NHPs; conditions: Vt of 68Ga-exendin4 vs coinjected unlabeled precursor peptide dose, 12 scans, estimated
T1 construct: from tissue; host or cells: pancreas of living cynomolgus monkeys (in vivo PET)
Method: A ^68Ga-exendin4 PET/CT imaging study on healthy cynomolgus NHPs was in part reported and described in detail previously ([5]). Briefly, NHPs were scanned by ^68Ga-exendin4 PET using a dose escalation study design in which several examinations were performed, several hours apart, over the course of one or several experimental days. Each subsequent scan entailed a higher peptide mass and radioactive dose to minimize influence from the preceding scan (Table 1). The resulting dataset enabled analysis of the self-blocking effect of the increasing amounts of coinjected unlabeled exendin4 precursor peptide.
Previously, only the simplified SUV analysis of 3 of the NHPs (8 scans) was reported ([5]). In preparation for the design of the clinical study, to better understand the peptide doses at which self-blocking starts to occur, we reanalyzed the dynamic NHP data from all 12 scans by graphical analysis using an image-derived blood plasma input.
Pancreas and other tissues of interest (such as spleen as a negative reference tissue) were delineated using PMOD, version 4.0 (PMOD Technologies). The PET signal for each tissue and time frame was corrected for the injected amount, and the image-derived input function was extracted by segmenting voxels fully within the lumen of the descending aorta as identified on early PET frames and coregistered CT projections. […]

GLP1R in the pancreas = target: T2, GLP1R in the pancreas (Homo sapiens, UniProt P43220); format: in vivo; conditions: humans with T2D, peptide dose less than 0.2 µg/kg; no negative correlation between peptide mass dose and net Ki
T2 construct: underwent PET/CT scanning for GLP1R availability in the pancreas (^68Ga-exendin4); from tissue; host or cells: pancreas of living individuals with type 2 diabetes (in vivo PET/CT)
Method: The PET assessments were performed 3 h after a standardized meal followed by fasting, to minimize the variability in GLP1 levels at the time of scanning. The individuals were examined over the abdomen with a Discovery MI PET/CT scanner (20-cm field of view; GE Healthcare). Low-dose CT was performed for attenuation correction and anatomic coregistration of PET images. The dose of the CT scan was limited by dosimetry considerations, given that each individual underwent up to 4 PET/CT examinations over the entire clinical study. A 0.5 MBq/kg target dose of ^68Ga-exendin4 (0.46 ± 0.03 MBq/kg, corresponding to 0.14 ± 0.04 μg of peptide per kilogram) was administered intravenously as a bolus. The amount of administered ^68Ga-exendin4 was based primarily on limiting the associated dose of DO3A-VS-exendin4 precursor peptide to below 0.2 μg/kg. This limit was imposed to minimize any self-blocking, and the cutoff was determined from the NHP dose escalation studies. Dynamic PET was initiated at administration and continued for 60 min. […] For 3 individuals, arterial sampling was performed at 5, 30, and 60 min after ^68Ga-exendin4 administration to measure the radioactivity in whole blood and plasma and to determine the metabolic stability of the tracer (the methods are shown in the supplemental materials, available at http://jnm.snmjournals.org) (17). […]

T1 sequence (F8V479 24-463): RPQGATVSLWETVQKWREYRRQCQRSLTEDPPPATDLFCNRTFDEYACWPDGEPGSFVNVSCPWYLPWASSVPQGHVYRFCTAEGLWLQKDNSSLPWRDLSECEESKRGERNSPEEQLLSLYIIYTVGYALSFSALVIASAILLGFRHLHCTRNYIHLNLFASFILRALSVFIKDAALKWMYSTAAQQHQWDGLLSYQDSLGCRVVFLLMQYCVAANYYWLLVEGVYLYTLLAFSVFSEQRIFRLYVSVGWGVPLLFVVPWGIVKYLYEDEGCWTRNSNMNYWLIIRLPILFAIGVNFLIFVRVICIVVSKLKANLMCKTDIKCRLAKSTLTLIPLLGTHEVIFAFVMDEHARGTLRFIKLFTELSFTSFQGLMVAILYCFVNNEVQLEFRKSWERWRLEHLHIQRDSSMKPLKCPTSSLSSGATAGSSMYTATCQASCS
T2 sequence (P43220 24-463): as the sequence (F8V479 24-463) above, with N112S, S120F, G202S, V205L, F237L, R241W, V249I counted along it

Substance: exendin4 [reference compound]
affinity for GLP1R (GLP1R [1]): nanomolar
GLP1R agonist potency (GLP1R [2]): subnanomolar

Substance: ^68Ga-DO3A-VS-exendin4 [^68Ga-exendin4]
affinity for GLP1R (GLP1R [1]; radiolabeled tracer): nanomolar range
Plasma-to-blood ratio ([3]; 5 min): 1.76 ± 0.06 1/1
Plasma-to-blood ratio ([3]; 0.5 h): 1.80 ± 0.05 1/1
Plasma-to-blood ratio ([3]; 1 h): 1.79 ± 0.05 1/1
plasma partitioning [3]: ≈ 1.8

dose inducing a 50% decrease in binding (in vivo half-maximal inhibitory concentration) (GLP1R [4]): approximately 0.45 µg/kg
self-blocking (GLP1R in the pancreas): negligible
Substance: DO3A-VS-exendin4
